Assay results taken from patent US10729706B2, “Psilocybin and/or psilocin in combination with cannabinoids and/or terpenes” (Procare Beheer B.V., priority 2017, dated 2020).

What was measured:
subjects with Depression = experiment: 48-day daily oral treatment, subjects diagnosed with depression; format: in vivo; conditions: 14 subjects with depression, 48-day treatment, 30 mg of each active
Protocol: (§1) In a 48-day treatment, 50 subjects suffering from diverse medical conditions receive a daily oral dose with either • pure psilocybin (30 mg); • pure cannabidiol (30 mg); or • combined treatment of pure psilocybin (30 mg)+pure cannabidiol (30 mg).

[1] = test system: subjects with Psychotic disorder; experiment: 48-day daily oral treatment, subjects diagnosed with psychotic disorder; format: in vivo; conditions: 3 subjects with psychotic disorder; 48-day treatment, daily oral dose 30 mg; increase
Protocol: as §1

[2] = test system: subjects with Schizophrenia; experiment: 48-day daily oral treatment, subjects diagnosed with schizophrenia; format: in vivo; conditions: 2 subjects with schizophrenia, 48-day treatment, 30 mg of each active, decrease
Protocol: as §1

[3] = test system: subjects with Anxiety disorder; experiment: 48-day daily oral treatment, subjects diagnosed with anxiety disorder; format: in vivo; conditions: 4 subjects with anxiety disorder; 48-day treatment, daily oral dose 30 mg; increase
Protocol: as §1

[4] = test system: subjects with Panic disorder; experiment: 48-day daily oral treatment, subjects diagnosed with panic disorder; format: in vivo; conditions: 2 subjects with panic disorder; 48-day treatment, daily oral dose 30 mg; increase
Protocol: as §1

[5] = test system: subjects with Huntington's disease; experiment: 48-day daily oral treatment, subject diagnosed with Huntington's disease; format: in vivo; conditions: 1 subject with Huntington's disease, 48-day treatment, 30 mg of each active
Protocol: as §1

[6] = test system: subjects with Alzheimer's disease; experiment: 48-day daily oral treatment, subjects diagnosed with Alzheimer's disease; format: in vivo; conditions: 10 subjects with Alzheimer's disease, 48-day treatment, 30 mg of each active
Protocol: as §1

subjects with Dementia = experiment: 48-day daily oral treatment, subjects diagnosed with dementia; format: in vivo; conditions: 10 subjects with dementia, 48-day treatment, 30 mg of each active
Protocol: as §1

[7] = test system: subjects with Parkinson's disease; experiment: 48-day daily oral treatment, subjects diagnosed with Parkinson's disease; format: in vivo; conditions: 4 subjects with Parkinson's disease, 48-day treatment, 30 mg of each active
Protocol: as §1

[8] = general statement in description; cited from earlier work

SMILES | subjects report improved mood after period of treatment (subjects with Depression) [subjects report] | increased occurrence of psychotic episodes during period of treatment, on average [1] | decreased occurrence of schizophrenic episodes during period of treatment, on average [2] | increased occurrence of anxiety attacks during period of treatment, on average [3] | Increased occurrence of panic attacks during period of treatment, on average [4] | progression of movement, cognitive, and psychiatric disorders during treatment [5] | progression of disease symptoms during treatment [6] | progression of disease symptoms during treatment (subjects with Dementia) | progression of movement disorders during treatment [7] | toxicity [8]
C=C(C)[C@@H]1CCC(C)=C[C@H]1c1c(O)cc(CCCCC)cc1O [cannabidiol] | 5 | on average, 10% | on average, 50% | on average, 40% | on average, 40% | normal progression | normal progression | normal progression | normal progression | –
CN(C)CCc1c[nH]c2cccc(OP(=O)(O)O)c12 [psilocybin, [3-(2-dimethylaminoethyl)-1H-indol-4-yl] dihydrogen phosphate] | 6 | on average, 20% | on average, 0% | on average, 50% | on average, 50% | – | – | – | – | low toxicity
